Structures are written as SMILES.

The values that follow come from ChEMBL document CHEMBL1139192, “Novel bis(indolyl)maleimide pyridinophanes that are potent, selective inhibitors of glycogen synthase kinase-3” (Bioorg Med Chem Lett, 2007).

Experiment [1] concerns the target T1, Serine/threonine-protein kinase Sgk1 (Homo sapiens) (UniProt O00141).
T1 sequence (whole entry): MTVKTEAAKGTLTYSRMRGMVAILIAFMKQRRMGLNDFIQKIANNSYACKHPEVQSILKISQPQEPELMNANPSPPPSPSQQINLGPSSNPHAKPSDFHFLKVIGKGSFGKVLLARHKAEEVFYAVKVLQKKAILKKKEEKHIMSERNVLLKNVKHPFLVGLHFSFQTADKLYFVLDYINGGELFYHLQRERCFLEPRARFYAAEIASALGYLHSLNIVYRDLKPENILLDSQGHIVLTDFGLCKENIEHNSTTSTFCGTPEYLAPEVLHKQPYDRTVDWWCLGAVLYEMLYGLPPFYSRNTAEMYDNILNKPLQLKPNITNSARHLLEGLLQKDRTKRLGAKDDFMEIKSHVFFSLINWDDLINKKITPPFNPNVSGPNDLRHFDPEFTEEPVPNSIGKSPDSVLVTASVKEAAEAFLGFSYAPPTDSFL
Nature of the experiment: Inhibition of human SGK at 1 uM relative to control; values are per cent of control.

Experiment [2] deals with RAF proto-oncogene serine/threonine-protein kinase (Homo sapiens) (UniProt P04049). Nature of the experiment: Residual activity of humna c-RAF at 1 uM relative to control.
Chain of RAF proto-oncogene serine/threonine-protein kinase (Homo sapiens) (P04049 whole entry): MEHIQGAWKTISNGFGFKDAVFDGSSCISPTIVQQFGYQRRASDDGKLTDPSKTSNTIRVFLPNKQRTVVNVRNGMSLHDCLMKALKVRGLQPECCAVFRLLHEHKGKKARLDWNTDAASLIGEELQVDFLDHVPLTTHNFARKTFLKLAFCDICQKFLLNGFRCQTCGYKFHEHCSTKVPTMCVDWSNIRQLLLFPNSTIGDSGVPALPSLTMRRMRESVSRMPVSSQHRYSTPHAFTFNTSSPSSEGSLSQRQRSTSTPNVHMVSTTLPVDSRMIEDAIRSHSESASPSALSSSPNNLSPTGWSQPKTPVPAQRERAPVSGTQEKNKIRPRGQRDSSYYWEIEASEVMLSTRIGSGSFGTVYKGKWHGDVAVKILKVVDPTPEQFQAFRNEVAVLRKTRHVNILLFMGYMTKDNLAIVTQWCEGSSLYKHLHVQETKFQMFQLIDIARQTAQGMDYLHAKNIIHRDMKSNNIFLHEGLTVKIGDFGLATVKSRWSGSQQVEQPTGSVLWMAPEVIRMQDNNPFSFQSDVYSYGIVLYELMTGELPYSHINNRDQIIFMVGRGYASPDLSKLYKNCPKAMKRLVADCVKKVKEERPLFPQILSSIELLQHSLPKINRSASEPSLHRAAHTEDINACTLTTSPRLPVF
Experiment [3] deals with T2, Aurora kinase A (Homo sapiens) (UniProt O14965).
T2 sequence (whole entry): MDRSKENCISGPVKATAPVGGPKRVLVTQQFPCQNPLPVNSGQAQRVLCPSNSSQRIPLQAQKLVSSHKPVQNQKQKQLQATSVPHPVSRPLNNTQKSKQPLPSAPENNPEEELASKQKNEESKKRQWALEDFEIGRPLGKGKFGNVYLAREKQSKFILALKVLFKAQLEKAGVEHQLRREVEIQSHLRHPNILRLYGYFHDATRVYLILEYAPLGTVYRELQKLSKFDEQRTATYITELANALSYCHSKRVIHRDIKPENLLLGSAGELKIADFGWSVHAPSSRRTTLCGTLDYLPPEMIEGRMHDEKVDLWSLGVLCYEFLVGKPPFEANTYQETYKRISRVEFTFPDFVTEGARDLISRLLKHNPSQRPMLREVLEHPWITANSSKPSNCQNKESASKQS
In words: Residual activity of human Aurora A at 1 uM relative to control.

Experiment [4] has as its target T3, Ephrin type-B receptor 2 (Homo sapiens) (UniProt P29323).
T3 sequence (whole entry): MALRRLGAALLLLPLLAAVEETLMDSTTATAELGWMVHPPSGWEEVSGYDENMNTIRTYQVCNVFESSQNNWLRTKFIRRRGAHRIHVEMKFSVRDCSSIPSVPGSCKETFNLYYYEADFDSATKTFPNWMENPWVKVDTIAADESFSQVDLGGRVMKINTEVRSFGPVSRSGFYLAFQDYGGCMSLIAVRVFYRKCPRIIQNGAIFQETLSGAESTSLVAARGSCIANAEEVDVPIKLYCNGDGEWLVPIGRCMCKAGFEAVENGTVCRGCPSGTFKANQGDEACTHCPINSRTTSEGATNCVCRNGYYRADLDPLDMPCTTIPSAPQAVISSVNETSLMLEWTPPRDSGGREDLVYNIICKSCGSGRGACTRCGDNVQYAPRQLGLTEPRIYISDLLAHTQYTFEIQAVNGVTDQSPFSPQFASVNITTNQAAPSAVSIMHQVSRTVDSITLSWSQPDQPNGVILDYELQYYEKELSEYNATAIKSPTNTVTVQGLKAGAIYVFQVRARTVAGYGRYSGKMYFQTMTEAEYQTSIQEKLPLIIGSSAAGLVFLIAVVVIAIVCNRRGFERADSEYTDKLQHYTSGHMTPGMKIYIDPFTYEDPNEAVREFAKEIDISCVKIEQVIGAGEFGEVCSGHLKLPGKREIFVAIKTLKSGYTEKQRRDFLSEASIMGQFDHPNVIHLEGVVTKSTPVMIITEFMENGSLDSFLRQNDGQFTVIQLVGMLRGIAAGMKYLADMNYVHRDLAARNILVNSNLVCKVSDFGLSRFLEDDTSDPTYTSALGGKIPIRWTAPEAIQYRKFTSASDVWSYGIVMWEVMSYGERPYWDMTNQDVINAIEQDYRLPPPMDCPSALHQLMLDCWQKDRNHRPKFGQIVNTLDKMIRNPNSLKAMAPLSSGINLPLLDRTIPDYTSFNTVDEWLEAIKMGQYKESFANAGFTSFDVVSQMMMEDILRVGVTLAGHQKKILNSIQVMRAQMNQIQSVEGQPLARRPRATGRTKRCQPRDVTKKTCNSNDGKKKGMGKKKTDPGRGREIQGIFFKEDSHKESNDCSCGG
In words: Inhibition of human EphB2 at 1 uM relative to control; values are per cent of control.

Another experiment is filed under the species Homo sapiens. In words: Inhibition of human MAPK2 at 1 uM relative to control; values are per cent of control.
Experiment [5] concerns Tyrosine-protein kinase ABL1 (Homo sapiens), P00519 [T315I]. In words: Residual activity of human Abl T315I mutant at 1 uM relative to control.
The target in experiment [6] is T4, Mitogen-activated protein kinase 13 (Homo sapiens) (UniProt O15264).
T4 sequence (whole entry): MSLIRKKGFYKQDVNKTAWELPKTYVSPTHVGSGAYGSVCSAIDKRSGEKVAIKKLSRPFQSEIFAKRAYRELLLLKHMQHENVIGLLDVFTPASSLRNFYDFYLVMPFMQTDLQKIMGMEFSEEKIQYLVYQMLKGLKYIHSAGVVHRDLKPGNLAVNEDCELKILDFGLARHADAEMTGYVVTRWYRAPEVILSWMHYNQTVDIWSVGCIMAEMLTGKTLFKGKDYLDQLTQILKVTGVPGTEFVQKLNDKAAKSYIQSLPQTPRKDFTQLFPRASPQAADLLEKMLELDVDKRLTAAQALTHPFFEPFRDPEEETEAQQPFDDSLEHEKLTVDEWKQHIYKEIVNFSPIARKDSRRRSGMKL
Nature of the experiment: Inhibition of human SAPK4 at 1 uM relative to control; values are per cent of control.

For experiment [7], the target named is Tyrosine-protein kinase ABL1 (Mus musculus) (UniProt P00520). In words: Residual activity of mouse Abl kinase at 1 uM relative to control.
Chain of Tyrosine-protein kinase ABL1 (Mus musculus) (P00520 whole entry): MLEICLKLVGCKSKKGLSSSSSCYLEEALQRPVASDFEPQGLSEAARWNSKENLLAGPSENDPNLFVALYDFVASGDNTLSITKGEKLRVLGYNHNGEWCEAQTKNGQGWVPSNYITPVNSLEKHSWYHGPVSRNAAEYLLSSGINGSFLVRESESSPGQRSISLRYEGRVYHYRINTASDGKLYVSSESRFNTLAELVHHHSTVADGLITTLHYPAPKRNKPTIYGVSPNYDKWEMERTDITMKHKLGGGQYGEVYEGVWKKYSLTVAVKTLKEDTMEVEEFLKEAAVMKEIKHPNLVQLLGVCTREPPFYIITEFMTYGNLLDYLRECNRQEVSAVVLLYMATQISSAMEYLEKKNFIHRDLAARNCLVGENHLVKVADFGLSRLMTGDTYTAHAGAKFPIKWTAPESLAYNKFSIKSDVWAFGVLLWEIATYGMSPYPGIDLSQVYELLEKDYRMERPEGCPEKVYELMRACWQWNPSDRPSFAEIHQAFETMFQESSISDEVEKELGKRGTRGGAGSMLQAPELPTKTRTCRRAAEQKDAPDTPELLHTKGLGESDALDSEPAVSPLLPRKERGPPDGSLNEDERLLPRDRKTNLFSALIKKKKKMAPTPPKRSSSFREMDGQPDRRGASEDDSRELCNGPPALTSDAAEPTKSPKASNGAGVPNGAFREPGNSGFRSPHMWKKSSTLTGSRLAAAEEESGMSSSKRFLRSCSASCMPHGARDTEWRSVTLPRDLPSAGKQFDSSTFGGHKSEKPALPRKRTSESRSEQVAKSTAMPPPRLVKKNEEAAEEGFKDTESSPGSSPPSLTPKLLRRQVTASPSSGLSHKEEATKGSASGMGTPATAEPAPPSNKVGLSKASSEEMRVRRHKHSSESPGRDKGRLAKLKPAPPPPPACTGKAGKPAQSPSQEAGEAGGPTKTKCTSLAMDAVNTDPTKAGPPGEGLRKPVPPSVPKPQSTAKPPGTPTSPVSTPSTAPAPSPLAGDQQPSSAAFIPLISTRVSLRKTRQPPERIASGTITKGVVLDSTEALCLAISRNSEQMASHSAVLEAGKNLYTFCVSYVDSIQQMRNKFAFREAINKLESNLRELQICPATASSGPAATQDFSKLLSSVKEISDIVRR
For experiment [8], the target named is Hepatocyte growth factor receptor (Homo sapiens) (UniProt P08581). Nature of the experiment: Inhibition of human Met at 1 uM relative to control; values are per cent of control.
Chain of Hepatocyte growth factor receptor (Homo sapiens) (P08581 whole entry): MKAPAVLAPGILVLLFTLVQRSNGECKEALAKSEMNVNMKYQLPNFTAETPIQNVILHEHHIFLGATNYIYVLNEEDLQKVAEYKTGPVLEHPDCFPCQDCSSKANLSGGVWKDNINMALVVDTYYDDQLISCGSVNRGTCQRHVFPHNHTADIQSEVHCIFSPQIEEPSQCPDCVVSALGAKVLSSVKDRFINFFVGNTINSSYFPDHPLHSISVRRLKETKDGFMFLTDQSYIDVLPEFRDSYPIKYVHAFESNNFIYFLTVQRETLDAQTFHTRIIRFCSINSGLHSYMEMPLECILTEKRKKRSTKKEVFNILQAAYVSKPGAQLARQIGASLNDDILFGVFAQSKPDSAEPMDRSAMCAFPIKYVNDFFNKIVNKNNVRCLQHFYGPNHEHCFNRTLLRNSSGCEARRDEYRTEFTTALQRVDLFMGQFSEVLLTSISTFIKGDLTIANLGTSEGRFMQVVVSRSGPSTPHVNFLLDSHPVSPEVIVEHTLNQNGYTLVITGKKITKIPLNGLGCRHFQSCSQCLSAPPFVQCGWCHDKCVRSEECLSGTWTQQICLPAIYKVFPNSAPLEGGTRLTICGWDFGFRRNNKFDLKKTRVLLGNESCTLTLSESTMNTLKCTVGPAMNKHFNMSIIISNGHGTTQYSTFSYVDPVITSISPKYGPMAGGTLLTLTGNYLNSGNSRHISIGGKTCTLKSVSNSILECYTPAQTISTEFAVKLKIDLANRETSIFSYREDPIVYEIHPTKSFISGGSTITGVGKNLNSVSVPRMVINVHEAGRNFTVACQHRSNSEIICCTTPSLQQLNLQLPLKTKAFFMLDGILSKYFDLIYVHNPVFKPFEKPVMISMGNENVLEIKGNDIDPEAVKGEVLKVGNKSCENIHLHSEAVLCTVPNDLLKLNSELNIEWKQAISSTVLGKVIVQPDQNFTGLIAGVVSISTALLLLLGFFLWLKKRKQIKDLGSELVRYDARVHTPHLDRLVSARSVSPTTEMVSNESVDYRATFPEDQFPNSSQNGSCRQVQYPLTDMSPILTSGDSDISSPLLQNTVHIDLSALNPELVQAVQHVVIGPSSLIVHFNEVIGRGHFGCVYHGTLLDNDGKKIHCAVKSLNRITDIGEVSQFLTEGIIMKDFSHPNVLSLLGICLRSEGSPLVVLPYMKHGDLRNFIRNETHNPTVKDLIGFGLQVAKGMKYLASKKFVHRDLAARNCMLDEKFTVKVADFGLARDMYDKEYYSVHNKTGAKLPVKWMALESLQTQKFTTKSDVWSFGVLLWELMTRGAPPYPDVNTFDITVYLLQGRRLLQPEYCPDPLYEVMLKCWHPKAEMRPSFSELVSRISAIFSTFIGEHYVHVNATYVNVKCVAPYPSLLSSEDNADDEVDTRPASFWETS
Another experiment is filed under the species Rattus norvegicus. Nature of the experiment: Inhibition of rat CaMK2 at 1 uM relative to control; values are per cent of control.

With `O=C1NC(=O)C2=C1c1cn(c3ccccc13)CCCc1ccc(c(N3CCCC3)n1)CCCn1cc2c2ccccc21`, the residual activity in experiment [1] is 93%; in experiment [2] it was 85%; in experiment [3], 106%; in experiment [4], 114%; in the experiment filed under Homo sapiens it was 88%; in experiment [5], 103%. Also, the residual activity in experiment [6] turned out to be 102%; in [7], 110%; in [8], 132%.

For `O=C1NC(=O)C2=C1c1cn(c3ccccc13)CCCc1cc(nc(N3CCCC3)c1)CCCn1cc2c2ccccc21`, the residual activity in experiment [1] worked out at 109%; in [2], 92%; in experiment [3], 111%; in experiment [4], 110%; in the experiment listed under Rattus norvegicus, 109%; in the experiment listed under Homo sapiens it was 92%. In addition, the residual activity in experiment [5] amounted to 77%; in experiment [6], 102%; in experiment [7] it was 104%; in [8] it was 129%.

For the compound `CN(C)c1nc2ccc1CCCn1cc(c3ccccc31)C1=C(C(=O)NC1=O)c1cn(c3ccccc13)CC2`, the residual activity in experiment [1] came out at 93%; in experiment [2], 103%; in experiment [3], 109%; in experiment [4], 125%; in the experiment filed under Rattus norvegicus it was 92%; in the experiment filed under Homo sapiens, 102%. In addition, the residual activity in experiment [5] amounted to 100%; in experiment [6] it was 101%; in experiment [7], 98%; in experiment [8] it was 121%.

Regarding `CN(C)c1cc2cc(n1)CCCn1cc(c3ccccc31)C1=C(C(=O)NC1=O)c1cn(c3ccccc13)CCC2`, the residual activity in [1] came out at 105%; in [2], 87%; in experiment [3] it was 111%; in experiment [4] it was 114%; in the experiment filed under Rattus norvegicus it was 107%; in the experiment filed under Homo sapiens, 104%. For the same compound, the residual activity came to 79% in experiment [5], 104% in experiment [6], 108% in experiment [7] and 132% in experiment [8].
